Data taken from PubChem BioAssay (NCI).
Values joined by “and” are separate entries in the source; they are usually repeats but may differ in a detail not shown here. Equal values may be shown once.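 Values below derive from 48-hour exposures of cells grown in 96-well plates, with endpoints linearly interpolated between the two concentrations bracketing the appropriate inhibition level. Here, GI50 denotes the concentration required for 50% inhibition of growth. TGI: concentration producing complete growth inhibition.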

What was measured:
Test in all cases: NCI tumour cell line growth inhibition, 48 h
786-0 renal = test system: 786-0 renal
MDA-MB-435 = test system: MDA-MB-435
NCI-H522 lung = test system: NCI-H522 lung
RXF 393 renal = test system: RXF 393 renal
SF-268 CNS = test system: SF-268 CNS
SF-539 CNS = test system: SF-539 CNS
SK-OV-3 ovarian = test system: SK-OV-3 ovarian
TK-10 renal = test system: TK-10 renal
UACC-257 melanoma = test system: UACC-257 melanoma
SR leukemia = test system: SR leukemia

Structure (SMILES)	GI50 (786-0 renal)	TGI (786-0 renal)	GI50 (MDA-MB-435)	TGI (MDA-MB-435) [µM]	GI50 (NCI-H522 lung) [µM]	TGI (NCI-H522 lung) [µM]	GI50 (RXF 393 renal) [µM]	TGI (RXF 393 renal)	GI50 (SF-268 CNS)	TGI (SF-268 CNS) [µM]	GI50 (SF-539 CNS)	TGI (SF-539 CNS)	GI50 (SK-OV-3 ovarian)	TGI (SK-OV-3 ovarian)	GI50 (TK-10 renal)	TGI (TK-10 renal) [µM]	GI50 (UACC-257 melanoma)	TGI (UACC-257 melanoma)	GI50 (SR leukemia)	TGI (SR leukemia)
Cc1cc(O)cc(C)c1/C=C/c1cncc(C(=O)N(C)C)c1	> 25 µM	> 25 µM	> 25 µM	> 25	> 25	> 25	> 25	> 25 µM	> 25 µM	> 25	> 25 µM	> 25 µM	> 25 µM	> 25 µM	> 25 µM	> 25	> 25 µM	> 25 µM	–	–
CCCCc1cc(O)ccc1O	12.2 µM	> 100 µM	22 µM	62.1	2.28	6.97	16.7	> 100 µM	15.5 µM	> 100	11.5 µM	45.4 µM	64.5 µM	> 100 µM	17.9 µM	42.8	78.2 µM	> 100 µM	8.26 µM	> 100 µM
CCc1ccc(C2=C(O)C(=O)C(c3ccc(CC)cc3)=C(O)C2=O)cc1	1.57 µM	2.95 µM	1.89 µM	6.72	1.51	4.61	3.34	12.8 µM	2.14 µM	6.44	1.8 µM	4.45 µM	2.05 µM	5.66 µM	2.26 µM	8.61	2.95 µM	11.1 µM	1.91 µM	5.07 µM
Cn1cnc([N+](=O)[O-])c1Sc1ncnc2nc[nH]c12	3.25 µM and 3.77 µM	> 100 µM	2.68 µM and 4.37 µM	> 100	7.56	> 100	35.2	> 100 µM	5.32 µM and 6.48 µM	> 100	4.81 µM and 3.26 µM	> 100 µM	0.471 µM and 0.867 µM	39.6 µM and > 100 µM	3.58 µM and 3.93 µM	> 100	7.86 µM and 8.71 µM	> 100 µM	37.9 µM and 4.04 µM	> 100 µM
O=[N+]([O-])/C=C\c1ccc2c(c1)OCO2	1.84 µM	3.52 µM	2.16 µM	–	–	–	1.66	3.1 µM	10.5 µM	22.4	3.08 µM	9.35 µM	12.1 µM	24.4 µM	3.16 µM	10	1.64 µM	3.77 µM	2.73 µM	8.06 µM
CCN(CC)CC(C)Nc1ccc(C)c2sc3ccccc3c(=O)c12 (configuration not stated)	3.14 µM	11.2 µM	3.37 µM	11.9	10.9	28.7	–	1.97 µM	6.24 µM	18.4	3.2 µM	12.7 µM	2.85 µM	12.3 µM	4.83 µM	17.6	2.07 µM	4.82 µM	–	–
CC[C@@]1(OC(=O)CCC(=O)O)C(=O)OCc2c1cc1n(c2=O)Cc2cc3ccccc3nc2-1	–	0.394 µM	–	3.22	–	3.72	–	1.53 µM	–	> 60.9	–	0.238 µM	–	14.2 µM	–	57.5	–	2.09 µM	–	0.03 µM
CC1=C(N2CC2)C(=O)c2nc3n(c2C1=O)CCC3O (configuration not stated)	–	0.967 µM	–	0.0484	–	0.262	–	0.398 µM	–	0.629	–	0.669 µM	–	0.859 µM	–	0.285	–	0.513 µM	–	35.6 µM
COC1C(=O)CCC2(CO2)C1(O)C1(C)OC1CCC(C)C (configuration not stated)	–	> 100 µM	–	> 100	–	> 100	–	> 100 µM	–	> 100	–	> 100 µM	–	> 100 µM	–	–	–	> 100 µM	–	> 100 µM
CCOC(=O)/C=C/c1ccc(C(=O)OCC)[nH]1	7.85 µM	> 100 µM	0.393 µM	2.29	2.69	8.89	9.59	46.9 µM	6.65 µM	> 100	5.91 µM	42.5 µM	27.8 µM	> 100 µM	6.05 µM	> 100	11.3 µM	> 100 µM	0.676 µM	> 100 µM
N#CC1C(N)=NNC1c1ccc(-c2ccc(-c3nc4ccccc4o3)cc2)o1 (configuration not stated)	> 100 µM	> 100 µM	36.4 µM	> 100	53.4	> 100	–	–	20 µM	51.7	–	–	37.4 µM	> 100 µM	25.5 µM	74.7	23.1 µM	> 100 µM	> 100 µM	> 100 µM
CC(O)C(NC(=O)C(CS)NC(=O)C(CO)NC(=O)C(CCCCN)NC(=O)C(Cc1c[nH]c2ccccc12)NC(=O)C(Cc1ccc(O)cc1)NC(=O)C(CS)NC(=O)C(N)Cc1ccccc1)C(N)=O (configuration not stated)	–	> 25 µM and 79 µM	–	> 25	–	> 25	14.5	> 25 µM and 36.6 µM	–	> 25	–	> 25 µM and 68.9 µM	–	> 25 µM	–	–	–	> 25 µM and 65.9 µM	29.7 µM	> 25 µM and 86.5 µM
O=C(Nc1ccc(Br)cc1)c1cc(Br)cc(Br)c1O	3.02 µM	29.7 µM	2.27 µM	6.09	2.23	7.7	–	–	3.59 µM	18.6	2.89 µM	12.4 µM	3.14 µM	> 100 µM	4.2 µM	> 100	2.08 µM	5.41 µM	3.87 µM	> 100 µM
NC(N)=N/N=C/c1c(-c2cc(Cl)sc2Cl)nc2n1CCS2	8.12 µM	15.6 µM	11.1 µM	19.7	20.4	> 50	10.8	22.4 µM	11.3 µM	23.5	7.43 µM	15.2 µM	–	–	8.65 µM	15.8	9 µM	20.4 µM	8.04 µM	20.7 µM
CC/C=C\C[C@H](O)C/C=C1/C(=O)C=C[C@@H]1C/C=C\CCCC(N)=O	1.94 µM	3.62 µM	1.72 µM	5.24	1.3	2.67	1.94	3.69 µM	2.96 µM	11.7	–	–	3.96 µM	12.8 µM	3.16 µM	6.95	1.97 µM	5.3 µM	–	–
O=C(N/N=C/c1ccc(F)cc1)c1[nH]c2ccc(I)cc2c1-c1ccccc1	0.475 µM	10.7 µM	0.162 µM	0.348	0.257	1.74	–	–	0.772 µM	> 80.7	0.338 µM	1.34 µM	0.464 µM	10.7 µM	19.7 µM	> 100	3.73 µM	> 96.6 µM	0.297 µM	3.37 µM
C=C1C(=O)O[C@H]2[C@H]1CC/C(COC(=O)c1ccc(C(=O)O)s1)=C\CC[C@@]1(C)O[C@@H]21	1.54 µM	3.09 µM	1.92 µM	4	1.93	3.87	1.97	3.92 µM	2.08 µM	4.69	1.62 µM	3.04 µM	12.3 µM	25.1 µM	1.64 µM	3.44	2.18 µM	5.47 µM	–	–
ClCCn1cnc2c(SCc3ccccc3)ncnc21	1.05 µM	19.7 µM	3.47 µM	> 100	–	–	11.4	63.5 µM	1.49 µM	> 100	8.77 µM	> 100 µM	8.3 µM	> 100 µM	0.924 µM	> 100	14.1 µM	> 100 µM	–	–
COc1cccc2c(=O)c3c(sc12)c(NCCCN)nc1ccccc13	1.65 µM	3.14 µM	1.8 µM	3.34	1.81	3.65	1.53	2.96 µM	1.48 µM	3.32	1.6 µM	2.97 µM	–	–	1.99 µM	3.63	2 µM	4.17 µM	–	–
O=C1/C(=C\c2cccs2)Oc2ccccc21	–	> 100 µM	–	> 100	–	> 100	–	> 100 µM	–	> 100	–	–	–	> 100 µM	–	> 100	–	> 100 µM	–	> 100 µM
Cc1ccc(N2C(=O)C(Cl)=C(Nc3cccc(O)c3)C2=O)cc1Cl	19.3 µM	52 µM	16.6 µM	34	31.8	> 100	0.549	22.2 µM	18.3 µM	37.2	–	–	21 µM	44.2 µM	18.5 µM	33.4	–	–	8.06 µM	30.4 µM
NC(=O)c1ccccc1NC(=O)C(=O)C(c1cnc2ccc([N+](=O)[O-])cc2n1)[N+](=O)[O-] (configuration not stated)	–	> 100 µM	–	> 100	–	> 100	–	> 100 µM	–	> 100	–	> 100 µM	–	> 100 µM	–	> 100	–	> 100 µM	–	–
